# According to ChEMBL document CHEMBL1201862, “PubChem BioAssay data set” (2004):
#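 Growth conditions: 96-well plates. Treatment: test compound, 48 hours, 5 concentrations. Analysis: linear interpolation between bracketing concentrations; unreached endpoints set to highest concentration. At the GI50, growth is halved.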 Active and inactive are the calls of the source. No stated cut-off is given here; in the data, active = GI50 up to about 1.1 µM and inactive = higher.
# Tests used:
# Test in all cases: inhibition of tumour cell growth, NCI panel, 48 h
# SF-295 = tested on: SF-295
# EKVX = tested on: EKVX
# SR = tested on: SR
# RPMI-8226 = tested on: RPMI-8226
# OVCAR-4 = tested on: OVCAR-4
# UACC-62 = tested on: UACC-62
# MCF7 = tested on: MCF7
# U-251 = tested on: U-251
# A549 = tested on: A549
# IGROV-1 = tested on: IGROV-1
# Hs-578T = tested on: Hs-578T
# SK-OV-3 = tested on: SK-OV-3
# UACC-257 = tested on: UACC-257
# SK-MEL-2 = tested on: SK-MEL-2
# OVCAR-8 = tested on: OVCAR-8
# NCI/ADR-RES = tested on: NCI/ADR-RES
# BT-549 = tested on: BT-549
# PC-3 = tested on: PC-3
# MOLT-4 = tested on: MOLT-4
# MDA-N = tested on: MDA-N
SMILES,GI50 (SF-295),GI50 (EKVX),GI50 (SR),GI50 (RPMI-8226),GI50 (OVCAR-4),GI50 (UACC-62),GI50 (MCF7),GI50 (U-251),GI50 (A549),GI50 (IGROV-1),GI50 (Hs-578T),GI50 (SK-OV-3),GI50 (UACC-257),GI50 (SK-MEL-2),GI50 (OVCAR-8),GI50 (NCI/ADR-RES),GI50 (BT-549),GI50 (PC-3),GI50 (MOLT-4),GI50 (MDA-N)
CCN(CC)CCNc1ccc2ncn3c4cc(OC)c(OC)c(O)c4c(=O)c1c23,10.4 µM (inactive),16 µM (inactive),1.29 µM (inactive),3.03 µM (inactive),4.9 µM (inactive),16.6 µM (inactive),2.88 µM (inactive),12.9 µM (inactive),11.9 µM (inactive),12.5 µM (inactive),13.2 µM (inactive),12.5 µM (inactive),22.9 µM (inactive),20.4 µM (inactive),5.3 µM (inactive),3.94 µM (inactive),16.3 µM (inactive),6.52 µM (inactive),0.524 µM (active),–
O=c1c2sc3nc(NCCN4CCCCC4)ncc3c2ncn1-c1ccccc1,61.8 µM (inactive),–,> 100 µM (inactive),80.4 µM (inactive),> 100 µM (inactive),82.2 µM (inactive),–,44.4 µM (inactive),40.6 µM (inactive),40 µM (inactive),36.4 µM (inactive),> 100 µM (inactive),31.3 µM (inactive),34.2 µM (inactive),45.5 µM (inactive),62.5 µM (inactive),85.9 µM (inactive),59.3 µM (inactive),67.8 µM (inactive),80.5 µM (inactive)
C=C(C)[C@H]1[C@@H]2OC(=O)[C@H]1[C@]1(O)C[C@H]3OC34C(=O)O[C@H]2[C@@]41C.CC(C)(O)[C@H]1[C@@H]2OC(=O)[C@H]1[C@]1(O)C[C@H]3OC34C(=O)O[C@H]2[C@@]41C (stereo partly drawn),> 100 µM (inactive),> 100 µM (inactive),–,> 100 µM (inactive),> 100 µM (inactive),> 100 µM (inactive),> 100 µM (inactive),> 100 µM (inactive),> 100 µM (inactive),> 100 µM (inactive),> 100 µM (inactive),> 100 µM (inactive),> 100 µM (inactive),> 100 µM (inactive),> 100 µM (inactive),–,> 100 µM (inactive),> 100 µM (inactive),> 100 µM (inactive),> 100 µM (inactive)
O=C(N/N=C/c1ccccc1O)c1ccccc1Nc1ccccc1C(=O)N/N=C/c1ccccc1O,0.975 µM (active),0.398 µM (active),0.566 µM (active),–,0.375 µM (active),1.05 µM (active),0.583 µM (active),3.48 µM (inactive),1.62 µM (inactive),0.458 µM (active),–,3.1 µM (inactive),2.97 µM (inactive),–,0.647 µM (active),1 µM (active),7.03 µM (inactive),13.4 µM (inactive),0.102 µM (active),> 100 µM (inactive)
CCn1c2ccccc2c2cc(NC(=O)c3c(C)nc(O)nc3NCCNCCO)ccc21,> 100 µM (inactive),> 100 µM (inactive),–,–,> 100 µM (inactive),> 100 µM (inactive),> 100 µM (inactive),> 100 µM (inactive),> 100 µM (inactive),> 100 µM (inactive),> 100 µM (inactive),> 100 µM (inactive),> 100 µM (inactive),–,> 100 µM (inactive),> 100 µM (inactive),> 100 µM (inactive),> 100 µM (inactive),> 100 µM (inactive),> 100 µM (inactive)
CN1CC[C@@]2(c3cccc(O)c3)CC(=O)/C(=C/c3ccc(Cl)c(Cl)c3)[C@H]1C2,2.03 µM (inactive),8.79 µM (inactive),1.14 µM (inactive),1.15 µM (inactive),4.59 µM (inactive),–,–,1.38 µM (inactive),3.28 µM (inactive),2.23 µM (inactive),2.51 µM (inactive),–,3.41 µM (inactive),–,3.05 µM (inactive),2.38 µM (inactive),2.52 µM (inactive),1.57 µM (inactive),3.15 µM (inactive),1.87 µM (inactive)
NCCCNCCCNCCCN,> 100 µM (inactive),> 100 µM (inactive),18.8 µM (inactive),16.4 µM (inactive),> 100 µM (inactive),> 100 µM (inactive),> 100 µM (inactive),> 100 µM (inactive),> 100 µM (inactive),> 100 µM (inactive),–,> 100 µM (inactive),> 100 µM (inactive),> 100 µM (inactive),> 100 µM (inactive),> 100 µM (inactive),> 100 µM (inactive),> 100 µM (inactive),14.9 µM (inactive),> 100 µM (inactive)
COc1cc(C2SCC(=O)N2c2ccc(-c3ccc(-n4c(-c5ccccc5)nc5ccccc5c4=O)cc3)cc2)cc(OC)c1OC (stereo not drawn),–,37.5 µM (inactive),23.1 µM (inactive),> 100 µM (inactive),10.4 µM (inactive),21.2 µM (inactive),26.2 µM (inactive),22.2 µM (inactive),24.6 µM (inactive),19 µM (inactive),20 µM (inactive),57.3 µM (inactive),8.04 µM (inactive),22.2 µM (inactive),43.4 µM (inactive),29.2 µM (inactive),17.3 µM (inactive),11.4 µM (inactive),21.1 µM (inactive),–
CCN(CC)CCN(/C(=N/c1ccccc1)N1CCOCC1)c1ccccc1,> 100 µM (inactive),> 100 µM (inactive),50.6 µM (inactive),> 100 µM (inactive),95.7 µM (inactive),> 100 µM (inactive),89.3 µM (inactive),> 100 µM (inactive),> 100 µM (inactive),48.4 µM (inactive),> 100 µM (inactive),> 100 µM (inactive),> 100 µM (inactive),> 100 µM (inactive),> 100 µM (inactive),> 100 µM (inactive),> 100 µM (inactive),> 100 µM (inactive),> 100 µM (inactive),–
Cc1ccc(/N=N/NCCCCN)cc1,19.3 µM (inactive),> 100 µM (inactive),> 100 µM (inactive),5.86 µM (inactive),> 100 µM (inactive),> 100 µM (inactive),> 100 µM (inactive),–,8.75 µM (inactive),> 100 µM (inactive),> 100 µM (inactive),> 100 µM (inactive),> 100 µM (inactive),> 100 µM (inactive),> 100 µM (inactive),> 100 µM (inactive),> 100 µM (inactive),–,7.26 µM (inactive),> 100 µM (inactive)
CC(C)(C)OC(=O)N(CCCCN(CCCNC(=O)C(F)(F)F)C(=O)OC(C)(C)C)CCCNC(=O)C(F)(F)F,> 100 µM (inactive),> 100 µM (inactive),> 100 µM (inactive),37.7 µM (inactive),> 100 µM (inactive),> 100 µM (inactive),> 100 µM (inactive),> 100 µM (inactive),> 100 µM (inactive),> 100 µM (inactive),> 100 µM (inactive),> 100 µM (inactive),> 100 µM (inactive),> 100 µM (inactive),> 100 µM (inactive),91.2 µM (inactive),> 100 µM (inactive),> 100 µM (inactive),71.9 µM (inactive),–
